According to patent publication US20080131366A1, “Folate Receptor Gene Modulation For Cancer Diagnosis And Therapy” (priority 2003, published 2008):

What was measured:
FR-α promoter [1] = test: FR-α promoter-luciferase in HeLa cells (endogenous GR); assay type: cell-based
Method: (§1) HeLa cells, which express endogenous GR, were transfected with FR-α promoter-luciferase or GRE2e1b promoter luciferase. […] FIG. 17B: Time course of Dex action. Promoter activity was measured in terms of luciferase activity at the different time points.

GRE2e1b promoter = test system: GRE2e1b promoter
Method: as §1

FR-α [2] = test: Endogenous FR-α in AR-transfected HeLa cells, flow cytometry with fluorescein-folic acid conjugate; assay type: cell-based
Method: Where indicated, cells were transfected with AR expression plasmid and the testosterone (10 nM) and TSA (50 mg/ml) treatments were for 3 days post-transfection.

FR-α promoter [3] = test: FR-α promoter-luciferase in T47D cells (endogenous PR and GR); assay type: cell-based; settings: TSA 25 ng/ml with R5020
FR-α promoter [4] = test: FR-α promoter-luciferase reporter in HeLa cells co-transfected with ER; assay type: cell-based
Method: (§2) (FIG. 1A) HeLa and IGROV-1 cells (10^6) were co-transfected with the FR-α promoter-luciferase construct (400 ng) and either an ER expression plasmid (25 ng) or with the plasmid vector alone (25 ng) in the presence of 1 nM E2. Antiestrogens were introduced at the time of transfection. […] (FIG. 1B) The FR-α promoter-luciferase construct (400 ng) was transfected into BG-1 cells (10^6) in the absence or in the presence of E2 (1 nM) and antiestrogens were introduced at the time of transfection. (FIG. 1C) HeLa cells (10^6) were transfected with the thymidine kinase (TK)-promoter-luciferase (200 ng) or Rous Sarcoma Virus (RSV)-promoter-luciferase (200 ng) constructs and were co-transfected with either ER plasmid (25 ng) or with the plasmid vector (25 ng). Antiestrogens were introduced at the time of transfection.
FIGS. 2A and 2B are graphs showing an estrogen and antiestrogen dose response of a control ERE-driven promoter and the FR-α promoter in HeLa cells. The Y-axis in FIG. 2A indicates promoter activation, whereas the Y-axis in FIG. 2B indicates promoter repression. The cells (10^6) were transfected with either ERE2E1b-luciferase (100 ng) (FIG. 2A) or FR-α promoter-luciferase (100 ng) (FIG. 2B) and co-transfected with the ER expression plasmid (50 ng) where indicated. Cells that were not co-transfected with the ER-plasmid were co-transfected instead with the plasmid vector alone (50 ng).
FIGS. 3A and 3B are graphs showing a time course of response of the control ERE2E1b-luciferase (FIG. 3A) and FR-α promoter luciferase (FIG. 3B) to antiestrogens in HeLa cells. The cells (10^6) were transfected with the indicated promoter-luciferase construct (100 ng) and co-transfected with ER expression plasmid (50 ng) in the presence of E2 (1 nM).
In one set of experiments, the antiestrogens were removed after a 6 h treatment.
Cell Culture and Transfection: HeLa I-1 cells were kindly provided by Dr. S. T. Rosen. BG-1 cells were provided by Dr. Randolf Ruch. HeLa (American Type Tissue Collection) and HeLa I-1 cells were routinely cultured in phenol red-free MEM supplemented with fetal bovine serum (FBS) (10%), penicillin (100 units/mL), streptomycin ([…]), and L-glutamine (2 mM). BG-1 and IGROV1 (American Type Tissue Collection) cells were routinely cultured in DMEM and supplemented as above. Treated or transfected cells were grown in phenol-red free media supplemented with charcoal-stripped FBS (5% v/v), penicillin (100 units/mL), streptomycin ([…]), L-glutamine (2 mM), insulin (2 μg/mL), and transferrin (40 μg/mL) unless otherwise noted. In addition, treated HeLa I-1 cells were grown in culture with 50 μg/mL G418. […] Uniformity of transfection was routinely monitored through cotransfections with the β-galactosidase expression plasmid, pSV-β-gal (Promega). β-galactosidase activity was measured colorimetrically using the assay system available from Promega.
Luciferase Assay: Forty-eight hours after transfection, the cells were washed once with PBS (10 mM sodium phosphate, pH 7.5, 150 mM NaCl) and harvested in 400 μL of reporter lysis buffer provided with the luciferase assay system (Promega). The samples were centrifuged at 12,000 g for 2 min at room temperature. The supernatant was assayed for luciferase activity in a luminometer (Lumat LB9501, Berthold) using the luciferase substrate from Promega.

FR-α promoter [5] = test: FR-α promoter-luciferase reporter in IGROV-1 cells co-transfected with ER; assay type: cell-based; settings: IGROV-1, ER co-transfected, 1 nM E2, pharmacologic concentrations of antiestrogen
Method: as §2
Cell Culture and Transfection: HeLa I-1 cells were kindly provided by Dr. S. T. Rosen. BG-1 cells were provided by Dr. Randolf Ruch. […] Uniformity of transfection was routinely monitored through cotransfections with the β-galactosidase expression plasmid, pSV-β-gal (Promega). β-galactosidase activity was measured colorimetrically using the assay system available from Promega. […]

FR-α [6] = test: Induction of endogenous FR-α in ER+/FRα-negative cells; assay type: cell-based; settings: ER+/FRα-negative cells including BG-1; results not shown
Source text: It appears that ER will only modulate the endogenous FR-α gene in cells in which the gene is transcriptionally active.

FR-α [7] = test: FR-α in HeLa cell tumor xenografts after tamoxifen, western blot; assay type: in vivo, mouse; settings: ER+ HeLa cell tumors, tamoxifen 1 mg/kg sc daily
FR-α promoter [8] = test: FR-α promoter-luciferase in HeLa cells transfected with AR; assay type: cell-based; settings: 10 nM
Method: (§3) FIGS. 10A, 10B, 10C and 10D are graphs showing the enhancement of FR-α promoter activity by testosterone/AR. In HeLa cells, AR was introduced by transiently transfecting an AR expression plasmid. FR-α promoter-luciferase, PSA-promoter-luciferase, or promoterless PGL3 basic-luciferase was co-transfected. Testosterone was introduced at the time of transfection (10 nM in FIGS. 10A, 10C, and 10D) and cells harvested for luciferase assays 48 h post-transfection. […] FIGS. 10C and 10D show AR dose responses for the FR-α and PSA promoters, respectively.
(§4) FIG. 11 is a graph showing the time course of testosterone/AR action on FR-α and PSA promoters. HeLa cells were cotransfected with AR expression plasmid and either FR-α promoter-luciferase or PSA promoter-luciferase. Testosterone (10 nM) was introduced 48 h post-transfection and the cells harvested to assay luciferase activity at the indicated times.

PSA promoter = test: PSA promoter-luciferase in HeLa cells transfected with AR; assay type: cell-based; settings: 10 nM, introduced 48 h post-transfection
Method: as §3, §4

FR (α or β) = test: FR induction by testosterone in FR-negative cell types; assay type: cell-based; settings: results not shown
[9] = biological target: T1, Estrogen receptor alpha (ER) (UniProt P03372 P03372:1-595); test: EMSA; no ER shift with consensus Sp1; HeLa NE present; settings: assayed with HeLa nuclear extract; label: 32P
[10] = biological target: T1, Estrogen receptor alpha (ER); test: EMSA; HeLa NE present; E2 increased band, tamoxifen and ICI 182,780 abolished it; 100-fold unlabelled ERE blocked; room temperature, 50 mM KCl, 0.5 mM MgCl2; settings: assayed with HeLa nuclear extract; label: 32P
[11] = biological target: T1, Estrogen receptor alpha (ER); test: EMSA; HeLa NE present; tamoxifen but not ICI 182,780 abolished band; settings: assayed with HeLa nuclear extract; label: 32P

T1 sequence (P03372 whole entry, one chain of several): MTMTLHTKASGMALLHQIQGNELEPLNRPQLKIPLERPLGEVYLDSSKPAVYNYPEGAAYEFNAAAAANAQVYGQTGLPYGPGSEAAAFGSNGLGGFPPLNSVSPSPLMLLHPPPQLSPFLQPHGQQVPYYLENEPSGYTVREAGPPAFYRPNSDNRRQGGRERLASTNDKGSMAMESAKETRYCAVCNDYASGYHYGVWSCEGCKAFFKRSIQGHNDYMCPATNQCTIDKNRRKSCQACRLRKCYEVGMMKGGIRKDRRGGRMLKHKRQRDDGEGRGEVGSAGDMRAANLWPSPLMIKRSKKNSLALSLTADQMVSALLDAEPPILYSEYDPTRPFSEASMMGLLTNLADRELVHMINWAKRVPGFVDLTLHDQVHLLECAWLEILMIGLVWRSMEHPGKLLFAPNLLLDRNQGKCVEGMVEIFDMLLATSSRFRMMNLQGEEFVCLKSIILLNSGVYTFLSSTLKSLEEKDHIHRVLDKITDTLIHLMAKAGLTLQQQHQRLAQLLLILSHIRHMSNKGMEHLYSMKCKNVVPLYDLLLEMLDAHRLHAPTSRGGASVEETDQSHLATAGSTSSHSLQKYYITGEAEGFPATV

C[C@@H]1C[C@H]2[C@@H]3CCC4=CC(=O)C=C[C@]4(C)[C@@]3(F)[C@@H](O)C[C@]2(C)[C@@]1(O)C(=O)CO [Dex, dexamethasone]
concentration of optimal enhancement (FR-α promoter [1]): 50 nM
time at which enhancement began (FR-α promoter [1]): > 48 h
time at which activation was shown (GRE2e1b promoter): ≤ 3 h

CC(/C=C/C(=O)NO)=C\[C@@H](C)C(=O)c1ccc(N(C)C)cc1 [TSA, trichostatin A]
further enhancement of the testosterone/AR-dependent increase (FR-α [2]; 50 ng/ml TSA with testosterone 10 nM): ~4 fold
activation of the FR-α promoter by R5020 (FR-α promoter [3]): greatly potentiated

CC/C(=C(\c1ccccc1)c1ccc(OCCN(C)C)cc1)c1ccccc1 [tamoxifen, Tamoxifen]
derepression of FR-α promoter after 6 h treatment and withdrawal (FR-α promoter [4]; 6 h treatment, then compound withdrawn): partially lost
effect on FR-α promoter (ligand dose response) (FR-α promoter [4]; HeLa, ER co-transfected): the repression was counteracted
FR-α promoter activity after repression by ER (FR-α promoter [4]; HeLa, ER co-transfected, 1 nM E2, pharmacologic concentrations of antiestrogen): either partially or completely restored to the uninhibited values
reporter activity at the end of 48 h post-transfection (FR-α promoter [4]; antiestrogen introduced 24 h after co-transfection): a doubling of the reporter activity
onset of activation of FR-α promoter (FR-α promoter [4]; antiestrogen introduced 24 h after transfection): began within hours and progressively increased
FR-α promoter activity in the absence of ER (FR-α promoter [4]; no ER co-transfected, HeLa and IGROV-1, results not shown): did not alter FR-α promoter activity
FR-α promoter activity after repression by ER (FR-α promoter [5]): either partially or completely restored to the uninhibited values
induction of endogenous FR-α expression (FR-α [6]): In no case did the inventor observe induction
FR-α expression in tumors (FR-α [7]): significant increase in FR-α expression

C[C@]12CC[C@H]3[C@@H](CCC4=CC(=O)CC[C@@]43C)[C@@H]1CC[C@@H]2O [testosterone]
FR-α promoter activity (FR-α promoter [8]): increased the promoter activity
time at which activation was observed (FR-α promoter [8]; introduced 48 h post-transfection): 2 h
time at which activation was observed (PSA promoter): 2 h
increase in fluorescence of the major peak (endogenous FR) (FR-α [2]; 10 nM for 3 days, AR transfected): approximately 7 fold
induction of FR (α or β) expression (FR (α or β)): did not induce FR (α or β) expression

B1: consensus Sp1 probe (dsDNA)
DNA 1: ATTCGATCGGGGCGGGGCGAG
DNA 2: CTCGCCCCGCCCCGATCGAAT
binding result [9]: no binding

B2: FR-alpha P4 promoter probe -89 to -50 (dsDNA)
DNA 1: GGAGATGGGGGCAGGGCTCTATCTGCCCCAGGCTTCCGTCC
DNA 2: GGACGGAAGCCTGGGGCAGATAGAGCCCTGCCCCCATCTCC
binding result [10]: binds

B3: consensus ERE probe (dsDNA)
DNA 1: GTCAGGTCACAGTGACCTGA
DNA 2: TCAGGTCACTGTGACCTGAC
binding result [11]: binds
